In PMC6964667 (2020):

Tests used:
[1] = test system: D2 (DNA, hairpin) CATTGTTAGACTTTTTGTCTAACAATG; assay: CD titration (ICD); details: 10 mM KCl, 10 mM MgCl2, 5 mM CaCl2, 10 μM DNA
[2] = test system: D2' (DNA, hairpin) CATTGTCAGACTTTTTGTCTGACAATG; assay: CD titration (ICD); details: 10 mM KCl, 10 mM MgCl2, 5 mM CaCl2, 10 μM DNA
[3] = test system: D2' (DNA, hairpin) CATTGTCAGACTTTTTGTCTGACAATG; assay: CD/UV melting at 260 nm; details: 10 mM KCl, 10 mM MgCl2, 5 mM CaCl2; sodium dimethyl arsinate pH 6.9, 6% DMSO; 3.6 equiv compound, 8.87 μM DNA
[4] = test system: D2 (DNA, hairpin) CATTGTTAGACTTTTTGTCTAACAATG; assay: CD/UV melting at 260 nm; details: 10 mM KCl, 10 mM MgCl2, 5 mM CaCl2; sodium dimethyl arsinate pH 6.9, 6% DMSO; 3.9 equiv compound, 8.87 μM DNA
[5] = test system: D1' (DNA, hairpin) CATTGTTAGCCTTTTTGGCTAACAATG; assay: CD titration (ICD); details: 10 mM KCl, 10 mM MgCl2, 5 mM CaCl2, 10 μM DNA
[6] = test system: D1 (DNA, hairpin) CATTGTCAGCCTTTTTGGCTGACAATG; assay: CD titration (ICD); details: 10 mM KCl, 10 mM MgCl2, 5 mM CaCl2, 10 μM DNA
[7] = test system: D1 (DNA, hairpin) CATTGTCAGCCTTTTTGGCTGACAATG; assay: CD/UV melting at 260 nm; details: 10 mM KCl, 10 mM MgCl2, 5 mM CaCl2; sodium dimethyl arsinate pH 6.9, 6% DMSO; 3.3 equiv compound, 8.87 μM DNA
[8] = test system: D1' (DNA, hairpin) CATTGTTAGCCTTTTTGGCTAACAATG; assay: CD/UV melting at 260 nm; details: 10 mM KCl, 10 mM MgCl2, 5 mM CaCl2; sodium dimethyl arsinate pH 6.9, 6% DMSO; 3.3 equiv compound, 8.87 μM DNA
[9] = test system: D3 (DNA, hairpin) CATTGTCATGCCTTTTTGGCATGACAATG; assay: CD titration (ICD); details: 10 mM KCl, 10 mM MgCl2, 5 mM CaCl2, 10 μM DNA
[10] = test system: D3' (DNA, hairpin) CATTGTTATGCCTTTTTGGCATAACAATG; assay: CD titration (ICD); details: 10 mM KCl, 10 mM MgCl2, 5 mM CaCl2, 10 μM DNA
[11] = test system: D3 (DNA, hairpin) CATTGTCATGCCTTTTTGGCATGACAATG; assay: CD/UV melting at 260 nm; details: 10 mM KCl, 10 mM MgCl2, 5 mM CaCl2; sodium dimethyl arsinate pH 6.9, 6% DMSO; 3.3 equiv compound, 8.87 μM DNA
[12] = test system: D3' (DNA, hairpin) CATTGTTATGCCTTTTTGGCATAACAATG; assay: CD/UV melting at 260 nm; details: 10 mM KCl, 10 mM MgCl2, 5 mM CaCl2; sodium dimethyl arsinate pH 6.9, 6% DMSO; 3.7 equiv compound, 8.87 μM DNA
[13] = 10 mM sodium dimethyl arsinate pH 6.9, 20 °C, up to 4.8 equiv, no ICD
[14] = 10 mM sodium dimethyl arsinate pH 6.9, up to 6% DMSO, 20 °C, saturation not reached
[15] = 10 mM sodium dimethyl arsinate pH 6.9, up to 6% DMSO, 20 °C

## CN(C)CCCNC(=O)CCNC(=O)c1cc(NC(=O)c2cc(NC(=O)c3cc(NC(=O)Cc4cccc(/N=N/c5cccc(CNC(=O)c6cc(NC(=O)c7cc(NC(=O)c8nccn8C)cn7C)cn6C)c5)c4)cn3C)cn2C)cn1C
[1]; [13]
  binding: no
[2]; [13]
  binding: no

## CN(C)CCCNC(=O)CCNC(=O)c1cc(NC(=O)c2cc(NC(=O)c3cc(NC(=O)Cc4cccc(/N=N\c5cccc(CNC(=O)c6cc(NC(=O)c7cc(NC(=O)c8nccn8C)cn7C)cn6C)c5)c4)cn3C)cn2C)cn1C
[1]; [14]
  KD: 52.3 ± 21.0 µM
[3]
  ΔTm: 1.4 K
[2]; [15]
  KD: 42.2 ± 6.3 µM
[4]
  ΔTm: 2.0 K

## CN(C)CCCNC(=O)CCNC(=O)c1cc(NC(=O)c2cc(NC(=O)c3nc(NC(=O)Cc4cccc(/N=N/c5cccc(CNC(=O)c6cc(NC(=O)c7cc(NC(=O)c8nccn8C)cn7C)cn6C)c5)c4)cn3C)cn2C)cn1C
[5]; [13]
  binding: no
[6]; [13]
  binding: no

## CN(C)CCCNC(=O)CCNC(=O)c1cc(NC(=O)c2cc(NC(=O)c3nc(NC(=O)Cc4cccc(/N=N\c5cccc(CNC(=O)c6cc(NC(=O)c7cc(NC(=O)c8nccn8C)cn7C)cn6C)c5)c4)cn3C)cn2C)cn1C
[5]; [15]
  KD: 13.2 ± 7.8 µM
[7]
  ΔTm: 3.5 K
[8]
  ΔTm: 2.1 K
[6]; [15]
  KD: 11.8 ± 6.0 µM

## CN(C)CCCNC(=O)CCNC(=O)c1cc(NC(=O)c2cc(NC(=O)c3nc(NC(=O)c4cc(NC(=O)Cc5cccc(/N=N/c6cccc(CNC(=O)c7cc(NC(=O)c8cc(NC(=O)c9cc(NC(=O)c%10nccn%10C)cn9C)cn8C)cn7C)c6)c5)cn4C)cn3C)cn2C)cn1C
[9]; [13]
  binding: no
[10]; [13]
  binding: no

## CN(C)CCCNC(=O)CCNC(=O)c1cc(NC(=O)c2cc(NC(=O)c3nc(NC(=O)c4cc(NC(=O)Cc5cccc(/N=N\c6cccc(CNC(=O)c7cc(NC(=O)c8cc(NC(=O)c9cc(NC(=O)c%10nccn%10C)cn9C)cn8C)cn7C)c6)c5)cn4C)cn3C)cn2C)cn1C
[9]; [15]
  KD: 21.3 ± 11.2 µM
[11]
  ΔTm: 3.5 K
[10]; [14]
  KD: 52.9 ± 29.6 µM
[12]
  ΔTm: 0.4 K
